# Source: patent US8574563B2 (Bristol-Myers Squibb Company, priority 2006, dated 2013)
# Tested on: HCV 1b-377-neo replicon cells
# Assay: HCV replicon assay, HCV 1b-377-neo replicon cells (1b FRET)
# Type: cell-based, Hepatitis C virus genotype 1b
# Conditions: HCV 1b-377-neo replicon cells; HCV 1b genotype; read-out: EC50 range against HCV 1b (Table 2, Range)
# Outline: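 Compounds were tested in genotype 1b subgenomic replicon cells carrying a neomycin marker, alongside a matched replicon line with an NS5A Y2065H substitution that confers resistance to a reference NS5A inhibitor.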
row,SMILES,EC50 [nM]
1,"CN(C)[C@@H](C(=O)N1CCC[C@H]1c1ncc(-c2ccc(-c3ccc(-c4cnc([C@@H]5CCCN5C(=O)C5CCN(C(=O)OC(C)(C)C)CC5)[nH]4)cc3)cc2)[nH]1)c1ccccc1 [Example 94-34, ′tert-butyl 4-(((2S)-2-(5-(4′-(2-((2S)-1-((2R)-2-(dimethylamino)-2-phenylacetyl)-2-pyrrolidinyl)-1H-imidazol-5-yl)-4-biphenylyl)-1H-imidazol-2-yl)-1-pyrrolidinyl)carbonyl)-1-piperidinecarboxylate]",1 to 99

# Same assay, conditions: Hepatitis C virus, HCV 1b-377-neo replicon cells; HCV 1b genotype; read-out: EC50 range against HCV 1b (Table 2, Range)
row,SMILES,EC50 [nM]
1,"COC(=O)N[C@@H](Cc1ccc(OP(=O)(O)OC)cc1)C(=O)N1CCC[C@H]1c1ncc(-c2ccc(-c3ccc(-c4cnc([C@@H]5CCCN5C(=O)[C@@H](NC(=O)OC)[C@@H](C)OC)[nH]4)cc3)cc2)[nH]1 [cj-92, methyl ((1S,2R)-1-(((2S)-2-(5-(4′-(2-((2S)-1-(O-(hydroxy(methoxy)phosphoryl)-N-(methoxycarbonyl)-L-tyrosyl)-2-pyrrolidinyl)-1H-imidazol-5-yl)-4-biphenylyl)-1H-imidazol-2-yl)-1-pyrrolidinyl)carbonyl)-2-methoxypropyl)carbamate]",1 to 99
2,"COC(=O)N[C@@H](C(=O)N1CCC[C@H]1c1ncc(-c2ccc(-c3ccc(-c4cnc([C@@H]5CCCN5C(=O)[C@@H](c5ccccc5)N(C)C)[nH]4)cn3)cc2)[nH]1)c1ccccc1 [Example 140, methyl ((1R)-2-((2S)-2-(5-(4-(5-(2-((2S)-1-((2R)-2-(dimethylamino)-2-phenylacetyl)-2-pyrrolidinyl)-1H-imidazol-5-yl)-2-pyridinyl)phenyl)-1H-imidazol-2-yl)-1-pyrrolidinyl)-2-oxo-1-phenylethyl)carbamate]",0.001 to 0.999
3,"CCNC(=O)NCc1ccc(C[C@H](NC(=O)OC)C(=O)N2CCC[C@H]2c2ncc(-c3ccc(-c4ccc(-c5cnc([C@@H]6CCCN6C(=O)[C@@H](NC(=O)OC)C(C)C)[nH]5)cc4)cc3)[nH]2)cc1 [cj-115, methyl ((1S)-1-(4-(((ethylcarbamoyl)amino)methyl)benzyl)-2-((2S)-2-(5-(4′-(2-((2S)-1-((2S)-2-((methoxycarbonyl)amino)-3-methylbutanoyl)-2-pyrrolidinyl)-1H-imidazol-5-yl)-4-biphenylyl)-1H-imidazol-2-yl)-1-pyrrolidinyl)-2-oxoethyl)carbamate]",0.001 to 0.999
4,"CCOC(=O)c1nc([C@@H]2CCCN2C(=O)[C@H](NC(=O)OC)c2ccccc2)[nH]c1-c1ccc(-c2ccc(-c3cnc([C@@H]4CCCN4C(=O)[C@H](NC(=O)OC)c4ccccc4)[nH]3)cc2)cc1 [Example J19, ethyl 2-((2S)-1-((2R)-2-((methoxycarbonyl)amino)-2-phenylacetyl)-2-pyrrolidinyl)-5-(4′-(2-((2S)-1-((2R)-2-((mcthoxycarbonyl)amino)-2-phenylacetyl)-2-pyrrolidinyl)-1H-imidazol-5-yl)-4-biphenylyl)-1H-imidazole-4-carboxylate]",0.001 to 0.999
5,"CC(=O)NCCC(=O)N1CCC[C@H]1c1ncc(-c2ccc(-c3ccc(-c4cnc([C@@H]5CCCN5C(=O)CCNC(C)=O)[nH]4)cc3)cc2)[nH]1 [cj-134, N-(3-((2S)-2-(5-(4′-(2-((2S)-1-(3-acetamidopropanoyl)-2-pyrrolidinyl)-1H-imidazol-5-yl)-4-biphenylyl)-1H-imidazol-2-yl)-1-pyrrolidinyl)-3-oxopropyl)acetamide]",1 to 99
6,"COC(=O)NC(C(=O)N1CCC[C@H]1c1ncc(-c2ccc(-c3ccc(-c4cnc([C@@H]5CCCN5C(=O)[C@@H](NC(=O)OC)C(C)C)[nH]4)cc3)cc2F)[nH]1)[C@@H](C)OC (stereo in doubt) [Example D42, methyl ((1S,2R)-1-(((2S)-2-(5-(3-fluoro-4′-(2-((2S)-1-(N-(methoxycarbonyl)-L-valyl)-2-pyrrolidinyl)-1H-imidazol-5-yl)-4-biphenylyl)-1H-imidazol-2-yl)-1-pyrrolidinyl)carbonyl)-2-methoxypropyl) carbamate]",0.001 to 0.999
7,"COC(=O)N[C@@H](C)C(=O)N1CCC[C@H]1c1ncc(-c2ccc(-c3ccc(-c4cnc([C@@H]5CCCN5C(=O)[C@H](Cn5cccn5)NC(=O)OC)[nH]4)cc3)cc2)[nH]1 [cj-37, methyl ((1S)-2-((2S)-2-(5-(4′-(2-((2S)-1-(N-(methoxycarbonyl)-L-alanyl)-2-pyrrolidinyl)-1H-imidazol-5-yl)-4-biphenylyl)-1H-imidazol-2-yl)-1-pyrrolidinyl)-2-oxo-1-(1H-pyrazol-1-ylmethyl)ethyl)carbamate]",0.001 to 0.999
8,"C[C@H]1CC[C@@H](c2nc(-c3ccc(-c4ccc(-c5c[nH]c([C@@H]6CC[C@H](C)N6C(=O)Cc6ccccc6)n5)cc4)cc3)c[nH]2)N1C(=O)Cc1ccccc1 [Example M159, 4,4′-(4,4′-biphenyldiyl)bis(2-((2S,5S)-5-methyl-1-(phenylacetyl)-2-pyrrolidinyl)-1H-imidazole)]",0.001 to 0.999
9,"O=C(Cc1cccs1)N1CCC[C@H]1c1ncc(-c2ccc(-c3ccc(-c4cnc([C@@H]5CCCN5C(=O)[C@@H](c5ccccc5)N5CCCCC5)[nH]4)cc3)cc2)[nH]1 [Example 107-30, 1-((1R)-2-oxo-1-phenyl-2-((2S)-2-(5-(4′-(2-((2S)-1-(2-thienylacetyl)-2-pyrrolidinyl)-1H-imidazol-5-yl)-4-biphenylyl)-1H-imidazol-2-yl)-1-pyrrolidinyl)ethyl)piperidine]",0.001 to 0.999
10,"CN(C)[C@@H](C(=O)N1CCC[C@H]1c1ncc(-c2ccc(-c3ccc(-c4cnc([C@@H]5CCCN5C(=O)Cc5cccc6ccccc56)[nH]4)cc3)cc2)[nH]1)c1ccccc1 [Example 94-49, (1R)-N,N-dimethyl-2-((2S)-2-(5-(4′-(2-((2S)-1-(1-naphthylacetyl)-2-pyrrolidinyl)-1H-imidazol-5-yl)-4-biphenylyl)-1H-imidazol-2-yl)-1-pyrrolidinyl)-2-oxo-1-phenylethanamine]",0.001 to 0.999
11,"COC(=O)N[C@H](C(=O)N1CC(F)(F)C[C@H]1c1nc(-c2ccc(-c3ccc(-c4cnc([C@@H]5CCCN5C(=O)[C@@H](NC(=O)OC)C(C)C)[nH]4)c(F)c3)cc2)c[nH]1)C(C)C [Example J14e, methyl ((1S)-1-(((2S)-4,4-difluoro-2-(4-(3′-fluoro-4′-(2-((2S)-1-((2S)-2-((methoxycarbonyl)amino)-3-methylbutanoyl)-2-pyrrolidinyl)-1H-imidazol-4-yl)-4-biphenylyl)-1H-imidazol-2-yl)-1-pyrrolidinyl)carbonyl)-2-methylpropyl)carbamate]",0.001 to 0.999
12,"COC(=O)N[C@@H](CC(C)C)C(=O)N1CCC[C@H]1c1ncc(-c2ccc(-c3ccc(-c4cnc([C@@H]5CCCN5C(=O)[C@H](CC(C)C)NC(=O)OC)[nH]4)cc3)cc2)[nH]1 [OL-6, methyl ((1S)-1-(((2S)-2-(4-(4′-(2-((2S)-1-((2S)-2-((methoxycarbonyl)amino)-4-methylpentanoyl)-2-pyrrolidinyl)-1H-imidazol-4-yl)-4-biphenylyl)-1H-imidazol-2-yl)-1-pyrrolidinyl)carbonyl)-3-methylbutyl)carbamate]",0.001 to 0.999
13,"CCCCN[C@@H](C(=O)N1CCC[C@H]1c1nc(-c2ccc(-c3ccc(-c4cnc([C@@H]5CCCN5C(=O)[C@H](NCCCC)c5ccccc5)[nH]4)cc3)cc2)c[nH]1)c1ccccc1 [Example F17, N-((1R)-2-((2S)-2-(4-(4′-(2-((2S)-1-((2R)-2-(butylamino)-2-phenylacetyl)-2-pyrrolidinyl)-1H-imidazol-5-yl)-4-biphenylyl)-1H-imidazol-2-yl)-1-pyrrolidinyl)-2-oxo-1-phenylethyl)-1-butanamine]",0.001 to 0.999
